In the Kinase Knowledgebase extract (Sharma et al. 2016):

These molecules were tested against PIK3CD (Human) (UniProt O00329) (assay: Enzyme Assay).
Sequence of PIK3CD (Human) (O00329 whole entry, looked up): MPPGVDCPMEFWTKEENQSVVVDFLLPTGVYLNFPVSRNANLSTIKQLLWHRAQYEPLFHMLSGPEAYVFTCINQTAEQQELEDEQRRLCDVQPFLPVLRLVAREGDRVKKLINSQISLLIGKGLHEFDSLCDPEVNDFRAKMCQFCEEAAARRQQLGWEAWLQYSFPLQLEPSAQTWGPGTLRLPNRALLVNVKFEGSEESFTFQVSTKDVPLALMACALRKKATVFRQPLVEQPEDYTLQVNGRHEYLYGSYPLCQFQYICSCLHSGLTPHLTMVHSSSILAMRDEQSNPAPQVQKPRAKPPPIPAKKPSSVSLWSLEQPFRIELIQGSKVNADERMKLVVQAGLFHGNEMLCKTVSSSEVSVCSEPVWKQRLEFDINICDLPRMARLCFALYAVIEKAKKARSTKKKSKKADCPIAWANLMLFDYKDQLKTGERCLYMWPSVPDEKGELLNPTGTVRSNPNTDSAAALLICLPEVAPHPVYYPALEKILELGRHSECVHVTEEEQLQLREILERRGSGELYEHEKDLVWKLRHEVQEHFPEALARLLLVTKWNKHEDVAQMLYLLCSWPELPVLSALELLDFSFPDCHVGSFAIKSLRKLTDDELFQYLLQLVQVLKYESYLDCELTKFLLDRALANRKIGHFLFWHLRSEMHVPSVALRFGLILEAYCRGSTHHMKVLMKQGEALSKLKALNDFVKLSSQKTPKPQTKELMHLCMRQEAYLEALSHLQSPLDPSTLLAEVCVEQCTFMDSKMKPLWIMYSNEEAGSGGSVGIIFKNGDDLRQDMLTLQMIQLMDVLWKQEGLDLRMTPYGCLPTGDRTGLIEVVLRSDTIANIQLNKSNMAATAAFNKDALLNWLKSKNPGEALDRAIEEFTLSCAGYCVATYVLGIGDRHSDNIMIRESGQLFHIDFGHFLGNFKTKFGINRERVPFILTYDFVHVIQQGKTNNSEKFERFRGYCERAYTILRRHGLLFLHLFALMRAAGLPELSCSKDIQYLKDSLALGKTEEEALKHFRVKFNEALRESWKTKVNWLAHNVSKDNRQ

Compared with C[C@@H](Nc1ncnc(N)c1C#N)c1nc2ncccc2n1-c1ccccn1.C[C@H](Nc1ncnc(N)c1C#N)c1nc2ncccc2n1-c1ccccn1, C[C@@H](Nc1ncnc(N)c1C#N)c1nc2ccc(F)cc2n1-c1cccc(F)n1.C[C@H](Nc1ncnc(N)c1C#N)c1nc2ccc(F)cc2n1-c1cccc(F)n1 is 120-fold lower in Ki: 2.9 µM for the first, 0.0247 µM for the second.

Compared with C[C@@H](Nc1ncnc(N)c1C#N)c1nc2cccc(S(C)(=O)=O)c2n1C1CC1.C[C@H](Nc1ncnc(N)c1C#N)c1nc2cccc(S(C)(=O)=O)c2n1C1CC1, C[C@@H](Nc1ncnc(N)c1C#N)c1nc2cccc(Br)c2n1-c1cncc(F)c1.C[C@H](Nc1ncnc(N)c1C#N)c1nc2cccc(Br)c2n1-c1cncc(F)c1 is 19-fold higher in Ki: 0.00376 µM for the first, 0.0697 µM for the second.

Going from C[C@@H](Nc1ncnc(N)c1C#N)c1nc2c(F)cccc2n1-c1cncc(F)c1.C[C@H](Nc1ncnc(N)c1C#N)c1nc2c(F)cccc2n1-c1cncc(F)c1 to C[C@@H](Nc1ncnc(N)c1C#N)c1nc2cc(F)ccc2n1-c1cncc(F)c1.C[C@H](Nc1ncnc(N)c1C#N)c1nc2cc(F)ccc2n1-c1cncc(F)c1, the Ki rises from 0.0861 µM to 0.148 µM (1.7-fold).

First: C[C@H](Nc1ncnc(N)c1C#N)c1nc2ccc(F)cc2n1-c1ccc(-c2cccnc2)nc1
Second: C[C@@H](Nc1ncnc(N)c1C#N)c1nc2ccc(F)cc2n1-c1ccc(-c2cccnc2)nc1
The Ki of the first is 4.8-fold lower: 0.248 µM for the first, 1.19 µM for the second. The first binds more tightly here.

Going from C[C@@H](Nc1ncnc(N)c1C#N)c1nc2c(F)cc(F)cc2n1-c1cccnc1.C[C@H](Nc1ncnc(N)c1C#N)c1nc2c(F)cc(F)cc2n1-c1cccnc1 to C[C@@H](Nc1ncnc(N)c1C#N)c1nc2ccc(F)cc2n1-c1cncc(Br)c1.C[C@H](Nc1ncnc(N)c1C#N)c1nc2ccc(F)cc2n1-c1cncc(Br)c1, the Ki rises from 0.0222 µM to 0.0461 µM (2.1-fold).

CNC(=O)c1cccc(-n2c([C@@H](C)Nc3ncnc(N)c3C#N)nc3ccc(F)cc32)c1.CNC(=O)c1cccc(-n2c([C@H](C)Nc3ncnc(N)c3C#N)nc3ccc(F)cc32)c1 and C[C@@H](Nc1ncnc(N)c1C#N)c1nc2ccc(F)cc2n1-c1cccc(C#N)c1.C[C@H](Nc1ncnc(N)c1C#N)c1nc2ccc(F)cc2n1-c1cccc(C#N)c1 are within 1.5-fold of each other in Ki: 0.0306 µM for the first, 0.0288 µM for the second.

Going from C[C@@H](Nc1ncnc(N)c1C#N)c1nc2cccc(C#N)c2n1-c1cncc(F)c1.C[C@H](Nc1ncnc(N)c1C#N)c1nc2cccc(C#N)c2n1-c1cncc(F)c1 to CNC(=O)c1cccc2nc([C@@H](C)Nc3ncnc(N)c3C#N)n(-c3cncc(F)c3)c12.CNC(=O)c1cccc2nc([C@H](C)Nc3ncnc(N)c3C#N)n(-c3cncc(F)c3)c12, the Ki falls from 0.177 µM to 0.0901 µM (2-fold). The second binds more tightly here.

Molecule C[C@@H](Nc1ncnc(N)c1C#N)c1nc2ccc(F)cc2n1-c1cncc(NS(C)(=O)=O)c1.C[C@H](Nc1ncnc(N)c1C#N)c1nc2ccc(F)cc2n1-c1cncc(NS(C)(=O)=O)c1 has a Ki of 0.0144 µM.
